Blank lines part the entries; values can stand above or below the molecule they belong to.
Assays:
PLK1 [1] = assay: In vitro kinase assay of Polθ immunoprecipitates with recombinant PLK1; format: biochemical; details: GFP–Polθ immunoprecipitate, recombinant PLK1 50, 100 or 500 ng, 5 μM ATP, [γ-32P]ATP, 30 min, 30 °C, autoradiography
Protocol: Immunoprecipitates of GFP–Polθ (2 h GFP trap at 4 °C, followed by 2 washes with 150 mM NaCl buffer and 1 wash with 300 mM NaCl) or 1.2 μg of RBER-CDC25tide (Reaction Biology, 0590-0000-1) were resuspended in 30 μl kinase buffer (Cell Signaling, 9802) containing 50, 100 or 500 ng of recombinant PLK1 (Reaction Biology, 0183-0000-1) and 5 μM ATP and 5 μCi [γ-^32P]ATP. After incubation for 30 min at 30 °C, reactions were stopped on ice by the addition of 2× Laemmli buffer and boiling for 5 min at 95 °C. Samples were separated on a 4–8% Tris-acetate gel (or 10% SDS–PAGE for the CDC25 positive control), and phosphorylated ^32P-Polθ and CDC25 were detected by autoradiography.

PLK1 [2] = assay: Real-time NMR phosphorylation of Polθ fragments by PLK1; format: biochemical; details: SOFAST HMQC series, 298 K, 8 h, PLK1 1:200
Protocol: (§1) The NMR experiments were performed on the Polθ protein fragments (E1424–Q1503) and (E1540–S1660), either ^15N- or ^15N,^13C-labelled, and dissolved in the NMR buffer (with in addition 7% v/v D2O and EDTA-free Protease Inhibitor Cocktail 1× (Roche)). Most experiments were recorded on a 700 MHz Bruker ADVANCE NEO spectrometer equipped with a triple resonance cryogenically cooled probe. ^1HN, ^13Cα, ^13Cβ, ^13CO and ^15N resonance frequencies of the non-phosphorylated fragments were assigned at 283 K using 2D ^1H–^15N SOFAST HMQC, 3D HNCA, 3D HNCACB, 3D CBCA(CO)NH, 3D HNCO, 3D HN(CA)CO and 3D HN(CA)NNH experiments. All 3D experiments were recorded using non uniform sampling (NUS: 40–50%). To monitor phosphorylation by PLK1, either ^15N- or ^15N,^13C-labelled Polθ protein fragments were mixed with PLK1, and a series of 16 2D NMR ^1H-^15N SOFAST HMQC experiments were recorded at 298 K during 8 h, each experiment being a 1,536 × 160 dataset acquired with 80 scans during 30 min[50]. The temperature was then set to 283 K and 2D ^1H–^15N SOFAST HMQC, 3D HNCA, 3D HNCACB, 3D CBCA(CO)NH and 3D HN(CA)NNH experiments were recorded, in order to assign the resonance frequencies of the phosphorylated fragments (here again with NUS at 40–50%). […]

TOPBP1 = details: peptide on streptavidin beads, HeLa nuclear extract 350 μg, 2 h room temperature, immunoblot
Protocol: Peptides were coupled to streptavidin beads in 150 mM NaCl on a rotating wheel at room temperature, for 1 h. Beads were washed twice in 150 mM NaCl prior to use in pull-down assays. Nuclear extracts from HeLa cells (350 μg) or 2 ml of bacteria protein extracts were incubated with 1 nmol of desired streptavidin beads-coupled peptide, on a rotating wheel, for 2 h, at room temperature. After incubation, beads were washed three times using 150 mM NaCl RIPA buffer, and twice using 300 mM NaCl before elution in 2× Laemmli buffer. All buffers used were supplemented with phosphatase and protease inhibitors. Eluted proteins were analysed by SDS–PAGE to identify peptide partners. The same amount of peptides used for pull-downs was loaded into a separate gel, and biotin signal was detected in the migration front. […] 1628-P/S1635-P: biotin-[sequence]pSFIWSGAp[sequence]. S1628/S1635: biotin-[sequence].

Polθ foci in mitosis = Polθ foci in mitosis after siRNA; format: cell-based, human; details: siRNA knockdown
Protocol: (§2) Transfection of siRNA oligonucleotides (Eurofins) was performed using Lipofectamine RNAiMax (ThermoFisher Scientific) following the manufacturer’s instructions.
(§3) Cells grown on coverslips were fixed for 15 min in 2% paraformaldehyde, permeabilized for 10 min in 0.5% Triton X-100, blocked for 30 min in BSA 5%, 0.1% Triton X-100, immunostained for 1 h with primary antibodies, 45 min with secondary antibodies (Highly Cross-Adsorbed Secondary Antibodies Alexa Fluor, ThermoFisher Scientific) and mounted Vectashield mounting medium containing DAPI (Vector Laboratories). The same protocol was applied to mitotic cells, which were collected by shake off and centrifuged onto glass slides using a cytospin centrifuge (400g, 5 min) before fixation. […] Biotin azide-EdU click-it reaction was performed after fixation and permeabilization by incubating cells with a mix of Picolyl biotin, CuSO4, THPTA (Jena Bioscience) and sodium ascorbate in PBS for 30 min in the dark followed by an incubation with streptavidin conjugated Alex fluor 647 antibody (ThermoFisher Scientific) during 1 h at room temperature. Images were taken at 60× or 100× magnification using Upright Spinning disk Confocal Microscope (Roper/Zeiss) or at 40× magnification using DeltaVision (Deconvolution) Image Restoration Microscope. […] Images were analysed using the Fiji software. […]

[3] = tested on: Polθ foci formation in RPE-1 cells expressing GFP–Polθ; assay: siRNA screen for ionizing radiation-induced Polθ foci formation; format: cell-based, human; details: 10 nM siRNA, 72 h, then 5 Gy, 2 h; cells with at least 5 Polθ foci; median RZ score of the three siRNAs, three replicate experiments
Description: The Human DDR siRNA library comprising 1,746 single siRNAs representing 582 human genes (3 siRNAs per gene) was obtained from ThermoFisher Scientific (A30089). For controls, siRNAs targeting GL2, kinesin family member 11 (KIF11) and GM130 were used to assess transfection efficacy and induced cell toxicity. FANCD2 siRNA ([…]dT, defined as FANCD2-ctrl in Supplementary Table 1) was used as a positive control inhibiting Polθ foci formation. RPE-1 cells expressing GFP–Polθ (250 cells per well in 384-well plates) were grown overnight. siRNAs were incubated 15 min with 0.05 μl Interferin reagent (Polyplus transfection) and Opti-MEM (ThermoFisher Scientific) prior to being transferred into each 384-well plate wells, to obtain a 10 nM final concentration. Cells were irradiated 72 h after transfection, at a dose of 5 Gy (226 s) with the CIXD irradiator (RadeXp platform, Institut Curie) and incubated at 37 °C, 5% CO2 for 2 h. […] Polθ was then identified as organelles in the nuclei area and quantified by the average intensity of pixels within the defined organelles region. […] Corrected values were normalized as follows: sample median and median absolute deviation (MAD) were calculated from the Interferin-treated population of each internal plate data points (named as Ref pop) and used to compute robust Z-scores[59] […]

Polθ foci in interphase = Polθ foci in interphase after siRNA; format: cell-based, human; details: siRNA knockdown
Protocol: as §2, §3

[4] = molecular target: T1, TOPBP1 BRCT7-8 domain, TOPBP1 fragment (1264–1493) (UniProt Q92547 1264-1493); assay: NMR titration; 2D 1H-15N spectra of 15N-labelled Polθ (E1424-Q1503), phosphorylated or not, without and with TOPBP1 BRCT7-8 at a 1:0.5 ratio; 25 mM HEPES, 50 mM NaCl, pH 7; details: both partners purified
T1 construct: source: bacteria protein extracts named for the peptide pull-down
T1 sequence (Q92547 1264-1493): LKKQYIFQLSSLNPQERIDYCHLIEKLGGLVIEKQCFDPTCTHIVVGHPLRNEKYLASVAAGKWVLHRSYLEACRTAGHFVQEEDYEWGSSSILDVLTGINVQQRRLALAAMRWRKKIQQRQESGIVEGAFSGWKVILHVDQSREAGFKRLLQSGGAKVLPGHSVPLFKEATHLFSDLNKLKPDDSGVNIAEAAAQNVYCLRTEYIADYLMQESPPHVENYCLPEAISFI

TOPBP1 BRCT7-8 = molecular target: T2, TOPBP1 BRCT7-8 (Homo sapiens, UniProt Q92547); assay: 2D NMR of 15N-labelled Polθ fragment with TOPBP1 BRCT7-8; format: binding; details: 2D 1H–15N, Polθ fragment:BRCT7-8 1:0.5, 25 mM HEPES, 50 mM NaCl, pH 7
T2 construct: GST (N); TEV cleavage site; made in house; host or cells: E. coli BL21 (DE3) Star
T2 sequence (Q92547 1264-1493): as above
Protocol: as §1

phosphorylation of Polθ by PLK1 (PLK1 [1]): direct phosphorylation of Polθ by PLK1
Molecule: Polθ: DNA polymerase theta
kinetics of Polθ phosphorylation by PLK1 (PLK1 [2]): fast kinetics of Polθ phosphorylation

Molecule: biotin-GSGTRQNHpSFIWSGApSFDLSPGLQRILDKVSS [1628-P/S1635-P]
interaction with TOPBP1 (TOPBP1): did not interact with TOPBP1

Molecule: ACAAAUACAUGGCUGGUUAdTdT (guide ACAAAUACAUGGCUGGUUATT; chemistry not fully specified) [TOPBP1, siRNA targeting TOPBP1]
Polθ foci formation in mitosis (Polθ foci in mitosis): suppressed Polθ foci (and filament) formation only in mitosis

Molecule: GUCUCCCAGAAGACAGUGAdTdT (sense GUCUCCCAGAAGACAGUGATT; chemistry not fully specified) [MDC1, siRNA targeting MDC1]
Polθ foci formation in mitosis (Polθ foci in mitosis): prevented the formation of Polθ foci in both interphase and mitosis
Robust z score_corrected_Cells multi-foci_MultiFoci (%) [3]: -2.42
Polθ foci formation in interphase (Polθ foci in interphase): prevented the formation of Polθ foci in both interphase and mitosis

binding result [4]: binds
B1: phosphorylated recombinant Polθ fragment (E1424–Q1503) (domain or fragment, human, UniProt O75417 1424-1503, looked up)
chain: EENGLFLKKNEVSVTDSQLNSFLQGYQTQETVKPVILLIPQKRTPTGVEGECLPVPETSLNMSDSLLFDSFSDDYLVKEQ
modifications: 15N-labelled; phosphorylated by PLK1, sites include S1482, S1486, S1488 and S1493
notes: DNA polymerase theta (Polθ), human, residues E1424-Q1503; also called phosphorylated Polθ E1424–Q1503 fragment; Polθ protein fragment F1 (phosphorylated); source: E. coli BL21 (DE3) Star, purified (HisTrap, TEV cleavage, reverse HisTrap), then phosphorylated with PLK1; not shown: GB1, C-terminal, cleaved; His6, C-terminal, cleaved

B2: non-phosphorylated recombinant Polθ (E1424–Q1503): recombinant Polθ fragment E1424–Q1503 from E. coli (protein, UniProt O75417 1424-1503, looked up, fragment)
chain: EENGLFLKKNEVSVTDSQLNSFLQGYQTQETVKPVILLIPQKRTPTGVEGECLPVPETSLNMSDSLLFDSFSDDYLVKEQ
NMR signals lost upon addition of TOPBP1 BRCT7-8 (TOPBP1 BRCT7-8): only a few NMR peaks were lost upon addition of TOPBP1 BRCT7-8

binding result [4]: binds
B3: non-phosphorylated recombinant Polθ fragment (E1424–Q1503) (domain or fragment, human, UniProt O75417 1424-1503, looked up)
chain: EENGLFLKKNEVSVTDSQLNSFLQGYQTQETVKPVILLIPQKRTPTGVEGECLPVPETSLNMSDSLLFDSFSDDYLVKEQ
modifications: 15N-labelled
notes: DNA polymerase theta (Polθ), human, residues E1424-Q1503; also called non-phosphorylated Polθ fragment from Glu1424 to Gln1503; Polθ protein fragment F1; source: E. coli BL21 (DE3) Star, purified (HisTrap, TEV cleavage, reverse HisTrap); not shown: GB1, C-terminal, cleaved; His6, C-terminal, cleaved

B4: phosphorylated recombinant Polθ fragment (E1424–Q1503): recombinant Polθ fragment E1424–Q1503 phosphorylated by PLK1 (protein)
chain: EENGLFLKKNEVSVTDSQLNSFLQGYQTQETVKPVILLIPQKRTPTGVEGECLPVPETSLNMSDSLLFDSFSDDYLVKEQ
modifications: 15N-labelled; phosphorylated by PLK1, sites include S1482, S1486, S1488 and S1493; left off: GB1, C-terminal, cleaved | His6, C-terminal, cleaved
NMR signals lost upon addition of TOPBP1 BRCT7-8 (TOPBP1 BRCT7-8): NMR signals corresponding to the Polθ region (p-S1482–L1499) were lost upon addition of BRCT7-8
